We go through two compounds from patent publication US20130022612A1, “METHODS AND COMPOSITIONS FOR MALARIA PROPHYLAXIS” (priority 2004, published 2013).

The subject of series [1] is CSP cleavage in P. berghei sporozoites. Description: Cell contact assay (CSP cleavage on contact with hepatocytes). The following applies: experiment 1, no cells, visualized with α-N. The series is classed as cell-based, Plasmodium berghei. How it is done: Hepa 1-6 cells were seeded on glass coverslips at a density of 2×10^5 cells per coverslip and grown until confluent. P. berghei sporozoites were incubated in DMEM±10 mM E-64 at 4° C. for two hours. Thirty minutes before sporozoites were added to coverslips, Cytochalasin D (CD) was added to all samples (final concentration, […]). Sporozoites were centrifuged onto coverslips (1250×g) for five minutes at 4° C. Coverslips were then brought to 37° C. for two minutes, fixed with 4% paraformaldehyde and stained with either mAb 3D11 followed by anti-mouse Ig FITC or the N-terminal antiserum (1:100) followed by anti-rabbit Ig FITC. […] As a control, sporozoites were spun onto coverslips without cells using the protocol outlined above.

The test system of series [2] is P. yoelii sporozoites. The series can be described thus: Sporozoite infectivity in vivo (liver 18S rRNA by RT and real time PCR). Also on record: species or system Plasmodium yoelii in Swiss/Webster mice. The procedure: Swiss/Webster mice were given three intraperitoneal injections of DMEM with or without E-64 (50 mg/kg/injection) at 16 hours, 2.5 hours, and 1 hour prior to intravenous injection of 15,000 P. yoelii sporozoites. Forty hours later, livers were harvested and total RNA was isolated using Tri-Reagent (Molecular Research Center, Cincinnati, Ohio). Malaria infection was quantified using reverse-transcription (RT) followed by real time PCR as outlined in (Bruna-Romero, et al. (2001)). RTs were performed with […] of total RNA and random hexamers (PE Applied Biosystems, Foster City, Calif.). Real time PCR was performed using primers that recognize P. yoelii-specific sequences within the 18S rRNA (Bruna-Romero, et al. (2001)) and the SYBR Green Core PCR kit (PE Applied Biosystems). Ten-fold dilutions of a plasmid construct containing the P. yoelii 18S gene were used to create a standard curve.
Swiss/Webster mice were given either 5 or 8 mg/kg of allicin (in DMEM without Cys/Met) intravenously (i.v.) at 60 minutes, 30 minutes, or immediately before i.v. injection of 10^4 P. yoelii sporozoites. Forty hours later, livers were harvested, total RNA was isolated, and malaria infection was quantified using reverse transcription (RT) followed by real time PCR using primers that recognize P. yoelii-specific sequences within the 18S rRNA as previously described (Bruna-Romero, O., et al.). Ten-fold dilutions of a plasmid construct containing the P. yoelii 18S rRNA gene were used to create a standard curve. For allicin preincubation experiments, P. yoelii sporozoites were preincubated with or without 50 μM allicin (in DMEM without Cys/Met) for ten minutes at 28° C. and diluted 12-fold with medium before i.v. injection into mice. All in vivo data were analyzed using the Student t-test for unpaired samples.
(In general: Quantitative PCR measures a nucleic acid by following its amplification.)

Series [3] relates to P. yoelii sporozoites. The following applies: sporozoites preincubated with E-64.
Method: For assays with P. berghei and P. yoelii, Hepa 1-6 cells (ATCC CRL-1830, American Type Culture Collection, Manassas, Va.), a mouse hepatoma cell line permissive for P. yoelii sporozoite development (Mota, et al. (2000)) was seeded (8×10^4 cells/well) in Lab-Tek permanox chamber slides (Nalgene Nunc Corp., Naperville, II.) and grown until confluent.
For assays with P. falciparum, HepG2 cells (ATCC HB8065, American Type Culture Collection) were used. On the day of the experiment, sporozoites were pre-incubated with DMEM/BSA alone or with the indicated protease inhibitor for two hours at 28° C. and plated on cells in the continued presence of the inhibitor for one hour at 37° C.
In a control, Hepa 1-6 cells were incubated with E-64 for two hours at 37° C., the medium was removed and then untreated P. berghei sporozoites were added. The inhibitors used were: 10 mM E-64; 1 mM PMSF; 75 mM leupeptin; 0.3 mM aprotinin; 100 mM 3,4 DCl; 1 mM pepstatin. […] Cells were then permeabilized with cold methanol and stained again with mAbs 3D11, 2F6 or 2A10 followed by anti-mouse Ig conjugated to FITC. All sporozoites were FITC-positive whereas only extracellular sporozoites stained with rhodamine. The percentage of sporozoites that invaded the cells is calculated using the following equation:
%invasion=total sporozites−extracellular sporozites×100/total sporozites
Series [4] deals with P. yoelii sporozoites. The settings on record: preincubated with 10 mM E-64. How it is done:
Lab-Tek glass slides (model 177402, Nalgene Nunc Corp., Naperville, Il.) were coated with […] of mAb 3D11 (P. berghei) or mAbs 2F6 and NYS1 (P. yoelii) and sporozoites pre-incubated with DMEM/BSA alone or supplemented with 10 mM E-64 or CD for two hours at 28° C. were added in the continued presence of the inhibitor for one hour at 37° C. in a humidified chamber with 5% CO2. The slides were then fixed with 4% paraformaldehyde, incubated with 1:100 dilution of either biotinylated mAb 3D11 (P. berghei) or biotinylated mAb NYS1 (P. yoelii) followed by streptavidin-FITC.

The test system of series [5] is P. berghei sporozoites. The procedure:
Panel A illustrates P. berghei sporozoites were metabolically labeled with [35 S]-Cys/Met and then washed and kept on ice (lane 1) or chased with cold medium for two hours at 28° C., in the absence (lane 2) or presence of the indicated protease inhibitors (lanes 3-11). After the chase, sporozoites were lysed, CSP was immunoprecipitated and analyzed by SDS-PAGE and autoradiography (abbreviations: Apr, aprotinin; DCl, 3,4 DCl; Leu, leupeptin; Pep, pepstatin; Phen, 1,10 phenanthroline). Panel B illustrates P. falciparum sporozoites were metabolically labeled as above and then kept on ice (lane 1) or chased with cold medium for ninety minutes in the absence (lane 2) or presence of E-64 (lane 3). Samples were processed as outlined above. Panel C illustrates P. berghei sporozoites were preincubated with buffer (lane 1) or the indicated compounds, washed, metabolically labeled with [^35S]-Cys/Met, lysed, and CSP was immunoprecipitated and analyzed by SDS-PAGE and autoradiography. (Abbreviations: Az=sodium azide).
In addition to the above, pulse-chase metabolic labeling experiments were performed with sporozoites of the human malaria parasite, Plasmodium falciparum. […] In order to insure that the protease inhibitors were not toxic to sporozoites, sporozoites were incubated with the various inhibitors for two hours and then propidium iodide (hereinafter, “PI”) was added, which is a fluorescent molecule that enters permeabilized cells.

The test system of series [6] is P. berghei sporozoites. The following applies: in the presence of E-64. The procedure: Hepa 1-6 cells were plated in 96-well tissue culture-treated plates, allowed to grow until semi-confluent, washed with DMEM without phenol red, loaded with 10 μM calcein green AM for 1 hour at 37° C. and washed 3 times. 5×10^5 sporozoites in culture medium were centrifuged onto the calcein-loaded cells, incubated for 1 hour at 37° C. and supernatants containing the released calcein were transferred to a ThermoElectron Microfluor 96-well plate. Fluorescence was read in a Labsystems Fluoroscan II using excitation and emission wavelengths of 485 nm and 538 nm, respectively. Further details are outlined in (Coppi et al., 2007).

The subject of series [7] is sporozoite migration through cells. The settings on record: 10 mM E-64, rhodamine-dextran positive cells. How it is done: Migration assays were performed as previously described (Mota, M., et al.). Sporozoites were pre-incubated±10 mM E-64 for two hours at 28° C. and added to monolayers of Hepa 1-6 cells in the continued presence of inhibitor with 1 mg/ml rhodamine-dextran, 10,000 MW (Molecular Probes). After one hour at 37° C., the cells were washed, fixed and the number of rhodamine-positive cells in each field was counted.

The conditions of series [8]: Brodnitz, M. H., et al.; cited from earlier work.

Molecules are shown by their SMILES.

For `CC(C)C[C@H](NC(=O)[C@H]1O[C@@H]1C(=O)O)C(=O)NCCCCN=C(N)N` (relative stereo) [E-64, L-trans-epoxysuccinyl-leucylamide-[4-guanido]-butane], the “percentage staining with the N-terminal antiserum” value in series [1] is 90% ± 4.1. Moreover, the “protection from malaria infection (liver P. yoelii 18S rRNA)” value in the series with P. yoelii sporozoites [2] (E-64 50 mg/kg/injection intraperitoneal at 16 hours, 2.5 hours, 1 hour before 15,000 sporozoites i.v.) was “completely protected from malaria infection”. The “effect on invasion by P. yoelii sporozoites” value in the series with P. yoelii sporozoites [3] is “significantly inhibited”. For the same compound, the “percentage of sporozoites that exhibited gliding motility” value in the series on P. yoelii sporozoites [4] is listed as “no effect”. Besides, in the series with P. berghei sporozoites [5], the “CSP synthesis after incubation with inhibitor” value is “not affected”. Also, the “increase in migratory activity” value in the series on P. berghei sporozoites [6] was 4 to 5 fold. In series [7], the “sporozoite migration through cells” value is “did not inhibit sporozoite migration through cells”.
Take `C=CCS[S+]([O-])CC=C` (centres unmarked) [allicin]: in the series on P. yoelii sporozoites [2] (8 mg/kg allicin i.v. just before injection of sporozoites), the “sporozoite infectivity in vivo versus untreated controls” value was “significantly decreased infectivity”. In addition, in the series with P. yoelii sporozoites [2] (8 mg/kg allicin i.v. one hour before sporozoites), the protection in vivo entry is recorded as “little protection”. The “sporozoite infectivity in vivo versus untreated mice” value with P. yoelii sporozoites [2] (8 mg/kg allicin i.v. thirty minutes before sporozoites) is on record as “decreased infectivity”. Also, in the series with P. yoelii sporozoites [2] (allicin 5 mg/kg i.v. one minute before sporozoites), the reduction in infection was found to be 10 fold. In the series with P. yoelii sporozoites [2] (allicin 8 mg/kg i.v. one minute before sporozoites), the “decrease in infection compared to controls” value stood at 1000 fold. The “malaria infection in mice injected with pretreated sporozoites” value in the series on P. yoelii sporozoites [2] (sporozoites preincubated with 50 μM allicin ten minutes, diluted 12-fold) is recorded as “no evidence of malaria infection”. In series [8], the stability in vivo result is given as “rapid decomposition in vivo”.
